Measurements: patent publication US20250027930A1, “SMALL MOLECULES FOR REPROGRAMING ANTI-TUMOR IMMUNITY OF T CELLS” (THE SCRIPPS RESEARCH INSTITUTE, priority 2021, published 2025)

Legend:
OT-I splenocytes = experiment: OT-I splenocyte culture with purine/pyrimidine pathway compounds; format: cell-based, mouse
Experimental: We therefore tested if purine and pyrimidine nucleotides have similar effects as N-Acetylneuraminic acid to help maintain less differentiated phenotypes of T cells during expansion. OT-I splenocytes were cultured with 500 nM […] peptide (OVA257-264) for three days at initial cell density of 1×10^6/mL to activate and expand the CD8+ T cell population. Different concentrations of the products or intermediates in purine or pyrimidine de novo synthesis pathways were added on day 3. The tested compounds include, e.g., guanosine, deoxyguanosine, adenosine, deoxyadenosine, inosine, xanthosine, orotidine, uridine, cytidine, deoxycytidine, thymidine, deoxythymidine, 5-Aminoimidazole-4-carboxamide ribonucleotide (AICAR), orotate, and dihydroorotate. The phenotype of expanded T cells were analyzed on day 5.

OT-1 cells = experiment: OT-I-Tcf7GFP splenocyte screen: proliferation and Tim3−TCF-1+ ratio; format: cell-based, mouse; conditions: Day7; for Tim3^−TCF-1^+ ratio of CD8^+ T cells (%): w/o 2.6
Experimental: Cell number was recorded on day 3 and day 7. On day 7, cells were stained with anti-CD8a (PerCP-Cy5.5) and anti-Tim3 (BV421) antibodies for flow cytometry or plate reader analysis.
Because TCF1 expression positively correlates with T cell stemness, the greater signal of EGFP a T cell expresses, the less differentiated the T cell is. Furthermore, if the compound also facilitates T cells proliferation, there would be more T cells per well in comparison to the untreated control. Therefore, a compound that not only maintains TCF-1 expression but also facilitates T cell growth would produce the strongest green fluorescence intensity. […] GlcA stands for glucuronic acid.

B16-OVA tumor = format: in vivo, mouse
Experimental: (§1) Naïve splenocytes from OT-1 mice were stimulated in vitro with OVA257-264 (500 nM) and IL-2 (60 IU/mL) in the presence or absence of an added compound for 3 days at a density of 1 million/mL (100 uL/well in 96/well plate), then expanded for 4 days. On day 7, PD-1, Tim3 and TCF-1 expressions were assessed by flow cytometry by staining cells with anti-CD8a (PerCP-Cy5.5), anti-Tim3 (BV421) and anti-TCF-1 (AF488) antibodies. For adoptive transfer, 0.6M B16-OVA cells (6×10^5) were inoculated subcutaneously 3 to 5 days before transfer in C57BL/6. On the day of adoptive transfer, mice were irradiated with 5 Gy X-ray, randomized according to tumor size, and intravenously injected with 0.2-0.3M of CD8+OT-1 T cells (2×10^5) expanded under different conditions, followed by administration of 50000 IU IL-2 every 12 h for four days. In the control group, mice were injected with cell-free vehicle only. For assessment of adoptive transfer of OT-1 CD8+ T cells activated and expanded by contacting the cells with fructose, on day 9 after transfer, anti-PD-1 (100 ug/mouse) was administered to the mice that had received T cell transfer. For assessment of adoptive transfer of OT-1 CD8+ T cells activated and expanded by contacting cells with Neu5Ac, on day 14 and day 21 after transfer, anti-PD-1 (100 ug/mouse) was administered to the mice that had received T cell transfer. The tumor growth was monitored every 3 to 4 days by measuring tumor size. Percent survival was also monitored and recorded within a period of 40 days post treatment. To evaluate tumor infiltrating OT-1 T cells, 0.6M B16-OVA cells (6×10^5) were inoculated subcutaneously 3 to 5 days before transfer in C57BL/6. On the day of adoptive transfer, mice were irradiated with 5 Gy X-ray, randomized according to tumor size, and intravenously injected with 0.2-0.3M of CD8+OT-1 T cells (2×10^5) expanded under different conditions, followed by administration of 50000 IU IL-2 every 12 h for four days. Tumors were then isolated and assessed for percentage of OT-I T cells from the total CD8+ T cells and OT-1 T cell number per gram of tumor tissue. To evaluate apoptosis, Naïve OT-1 splenocytes were stimulated by OVA257-264 (500 nM) without IL-2 in the presence of absence of sugars for 5 days followed by using Annexin V Apoptosis detection kit (Biolegend). […] To evaluate other cellular characteristics, naïve OT-1 splenocytes were stimulated by OVA257-264 (500 nM) with IL-2 (60 IU/mL) in the presence or absence of sugars for 7 or 8 days. On day 7 or 8 cells were taken and analyzed by assessment of ROS, NADPH/NADP+ ratio, and GSH/GSSG ratio.

P14 cells = experiment: P14 splenocyte in vitro activation, re-stimulation and expansion; format: cell-based, mouse; conditions: for Fold of proliferation, Normalized to W/O: P14 cells
P14 CD8+ T cells = format: in vivo, mouse; conditions: 14 dpi LCMV-Cl13; cells treated in vitro, vs untreated
OT-1 CD8+ T cells = experiment: OT-1 splenocyte activation and expansion, day 7 flow cytometry; format: cell-based, mouse; conditions: OT-1 cells day 7; compared with fructose or sucrose
Experimental: Naïve splenocytes from OT-1 mice were stimulated in vitro with OVA257-264 (500 nM) and IL-2 (60 IU/mL) in the presence or absence of an added compound for 3 days at a density of 1 million/mL (100 uL/well in 96/well plate), then expanded for 4 days. On day 7, PD-1, Tim3 and TCF-1 expressions were assessed by flow cytometry by staining cells with anti-CD8a (PerCP-Cy5.5), anti-Tim3 (BV421) and anti-TCF-1 (AF488) antibodies. For adoptive transfer, 0.6M B16-OVA cells (6×10^5) were inoculated subcutaneously 3 to 5 days before transfer in C57BL/6. On the day of adoptive transfer, mice were irradiated with 5 Gy X-ray, randomized according to tumor size, and intravenously injected with 0.2-0.3M of CD8+OT-1 T cells (2×10^5) expanded under different conditions, followed by administration of 50000 IU IL-2 every 12 h for four days. In the control group, mice were injected with cell-free vehicle only. For assessment of adoptive transfer of OT-1 CD8+ T cells activated and expanded by contacting the cells with fructose, on day 9 after transfer, anti-PD-1 (100 ug/mouse) was administered to the mice that had received T cell transfer. For assessment of adoptive transfer of OT-1 CD8+ T cells activated and expanded by contacting cells with Neu5Ac, on day 14 and day 21 after transfer, anti-PD-1 (100 ug/mouse) was administered to the mice that had received T cell transfer. The tumor growth was monitored every 3 to 4 days by measuring tumor size. Percent survival was also monitored and recorded within a period of 40 days post treatment. To evaluate tumor infiltrating OT-1 T cells, 0.6M B16-OVA cells (6×10^5) were inoculated subcutaneously 3 to 5 days before transfer in C57BL/6. […] Tumors were then isolated and assessed for percentage of OT-I T cells from the total CD8+ T cells and OT-1 T cell number per gram of tumor tissue. […] On day 7 or 8 cells were taken and analyzed by assessment of ROS, NADPH/NADP+ ratio, and GSH/GSSG ratio.

[1] = test system: MC38 TSA-reactive CD8+ TILs; experiment: Rapid expansion of TSA-reactive CD8+ TILs from MC38 tumors; format: cell-based, mouse
Experimental: Sugars were added at the beginning or during the expansion of the TILs, and kept till the end of expansion. On expansion day 9, phenotypes of the expanded T cells were assessed, and the cells were used for adoptive transfer (FIG. 6E). For adoptive transfer, 0.5 million cells (B16-OVA or MC38) were inoculated subcutaneously on each mouse on day 0, Listeria monocytogenes-OVA (LM-OVA) infection 0.5 million CFU/mice on day 1, and blood analysis was recorded on day 7.

OT-1 splenocytes [2] = experiment: Apoptosis (Annexin V) and IL-2 production of OT-1 splenocytes stimulated without IL-2; format: cell-based, mouse; conditions: OVA257-264 500 nM without IL-2, 5 days
Experimental: as §1

TILs from B16-OVA tumor = format: cell-based, mouse; conditions: day 7 rapid expansion; vs without sugars
Experimental: TILs from B16-OVA tumor were isolated on day10 after inoculation, and Tim-3^−TCF/GFP^+ and Tim-3^+TCF/GFP^− in tetramer positive population were collected by live cell sorting (FIG. 15A). Phenotype features of Tim-3^−TCF/GFP^+ (FIG. 15B) and Tim-3^+TCF/GFP^− (FIG. 15C) were analyzed on day 7 after rapid expansion with feeder cells (TILs/feeder cell: 1/200) in the presence or absence of sugars.
To investigate which population that sugars mainly changed on T cells, B16-OVA cancer cells (7×10^5 cells) were subcutaneously inoculated into the left or right flank of TCF7^GFP mice expressing an EGFP fluorescent reporter from the endogenous Tcf7 locus, which enable us to track the expression of TCF-1 in live cells.

OT-1 splenocytes [3] = experiment: ROS, NADPH/NADP+ ratio and GSH/GSSG ratio of OT-1 splenocytes; format: cell-based, mouse; conditions: day 7 or 8, with IL-2; vs T cells not treated with sugar
Experimental: as §1

[4] = Mus musculus, Splenocyte, 168 h, 60 mM, OT-1 cells, read-out: Proliferation fold, Normalized to W/O

SMILES: CCN(c1cc(-c2ccc(CN3CCOCC3)cc2)cc(C(=O)NCc2c(C)cc(C)[nH]c2=O)c1C)C1CCOCC1 [Taz, Tazemetostat]
- cell survival when added on day 0 together with OVA257-264 peptide (OT-I CD8 T cells): all cells were found dead
- fold increase in progenitor exhausted cells (OT-I CD8 T cells; day 7, Taz (3-7), 400 nM): 2.5-3.5 fold
- progenitor exhausted cells (Tim3^−TCF-1^+) (OT-I CD8 T cells; day 7, Taz (3-7), 400 nM, without Taz 8.47%): 27.7%

SMILES: NC(=O)c1ncn([C@@H]2O[C@H](COP(=O)(O)O)[C@@H](O)[C@H]2O)c1N [AICAR, 5-Aminoimidazole-4-carboxamide ribonucleotide]
- cell proliferation (OT-I splenocytes; added together with N-Acetylneuraminic acid on day 3, analyzed day 5): without significant impact on cell proliferation

SMILES: N#Cc1cc(Nc2ncc3c(n2)CCCCC3=O)cs1 [Inhibitor G6PDi-1, reference compound]
- cell proliferation (OT-I splenocytes; added on day 3, analyzed day 5): without significant impact on cell proliferation
- increase of the proportion of Tim3−TCF1+ T cells by a factor (OT-I splenocytes; added on day 3, analyzed day 5): 1.5

SMILES: OC[C@H]1O[C@@H](O[C@H]2[C@H](O)[C@@H](O)C(O)O[C@@H]2CO)[C@H](O)[C@@H](O)[C@H]1O (some centres unmarked) [Lactose, lactose]
- Tim3^−TCF-1^+ ratio of CD8^+ T cells (%) (OT-1 cells; 60 mM): 25.6%
- activity at 60000 µM (OT-1 cells; [4]): 63%
- capabilities to control tumor growth (B16-OVA tumor; adoptive transfer of sugar-treated OT-1 T cells, vs untreated T cells): significantly better
- Fold of proliferation, Normalized to W/O (P14 cells; Day6, 60 mM): 1.87 fold
- Tim3^−TCF-1^+ ratio of CD8^+ T cells (%) (P14 cells; Day6, 60 mM, w/o 55.0): 79.4%
- Fold of proliferation, Normalized to W/O (P14 cells; Day9, 60 mM): 1.76 fold
- Tim3^−TCF-1^+ ratio of CD8^+ T cells (%) (P14 cells; Day9, 60 mM, w/o 3.5): 23.7%
- percentages and total numbers of expanded virus-specific P14 CD8+ T cells in the spleen and liver (P14 CD8+ T cells): significantly higher
- percentage of Tim3−TCF-1+ CD8+ T cells (in words) (OT-1 CD8+ T cells): increased the percentage of Tim3−TCF-1+ CD8+ T cells but at a lower level

SMILES: CC(=O)N[C@H]1C(O)O[C@H](CO)[C@@H](O)[C@@H]1O (some centres unmarked) [GlcNAc, N-Acetylglucosamine]
- Tim3^−TCF-1^+ ratio of CD8^+ T cells (%) (OT-1 cells; 60 mM): 28.8%
- activity at 60000 µM (OT-1 cells; [4]): 145%
- cell surface anti-CLA (Cutaneous Lymphocyte-associated Antigen) staining [1]: significant increase
- viability and apoptotic characteristics (OT-1 splenocytes [2]; vs T cells not treated with sugar): enhanced viability and differential apoptotic characteristics
- production of IL-2 (OT-1 splenocytes [2]; vs no sugar): significantly greater
- maintenance of progenitor exhausted features of sorted Tim-3-TCF-GFP^+ TILs (TILs from B16-OVA tumor): maintain more Tim-3^−TCF/GFP^+ cells
- tumor infiltrating OT-1 T cell numbers (B16-OVA tumor; treated T cells transferred to B16-OVA mice): increased
- Fold of proliferation, Normalized to W/O (P14 cells; Day6, 60 mM): 2.47 fold
- Tim3^−TCF-1^+ ratio of CD8^+ T cells (%) (P14 cells; Day6, 60 mM, w/o 55.0): 89.2%
- Fold of proliferation, Normalized to W/O (P14 cells; Day9, 60 mM): 1.44 fold
- Tim3^−TCF-1^+ ratio of CD8^+ T cells (%) (P14 cells; Day9, 60 mM, w/o 3.5): 21.2%
- GSH/GSSG ratio (OT-1 splenocytes [3]): greater
- NADPH/NADP+ ratio (OT-1 splenocytes [3]): greater
- ROS (OT-1 splenocytes [3]): significantly less

SMILES: OC[C@H]1O[C@H](O[C@H]2O[C@H](CO)[C@@H](O)[C@H](O)[C@H]2O)[C@H](O)[C@@H](O)[C@@H]1O [Trehalose, trehalose]
- Tim3^−TCF-1^+ ratio of CD8^+ T cells (%) (OT-1 cells; 80 mM): 35.4%
- activity at 80000 µM (OT-1 cells; Mus musculus, Splenocyte, 168 h, 80 mM, OT-1 cells, read-out: Proliferation fold, Normalized to W/O): 84%
- Fold of proliferation, Normalized to W/O (P14 cells; Day6, 80 mM): 1.42 fold
- Tim3^−TCF-1^+ ratio of CD8^+ T cells (%) (P14 cells; Day6, 80 mM, w/o 55.0): 83.2%
- Fold of proliferation, Normalized to W/O (P14 cells; Day9, 80 mM): 1.47 fold
- Tim3^−TCF-1^+ ratio of CD8^+ T cells (%) (P14 cells; Day9, 80 mM, w/o 3.5): 34.6%
